Numbers after ± are expanded uncertainties.

The conditions of this series: Crystal 2; DTA.

Turning to `CC12CCC(CC1=O)C2(C)C` (configuration not stated) [1,7,7-trimethylbicyclo[2.2.1]-2-heptanone], the Triple point temperature is given as 362 ± 4 K.
On to `CC1(C)[C@@H]2CC[C@@]1(C)C(=O)C2` [d-camphor], for which the Triple point temperature was determined as 367 ± 3 K.

Source of the values: the NIST ThermoML archive (doi:10.1016/j.tca.2012.03.027).
